Where two headings read alike, the source gives them in different places.
Tested on: A. baumannii
Assay: microbe, parasite or virus in culture
Outline: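 MIC was taken as the lowest concentration without visible growth, or past which OD600 no longer fell. Testing followed CLSI M07 and M100 broth microdilution, using 0.5 McFarland-derived inocula in CAMHB (LB for A. baylyi isolates).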

CN1C(=O)[C@H](CCCCN)NC(=O)[C@H](CCCN)NCc2cccnc2Sc2c(Cl)ccc(Cl)c2CNC(=O)[C@@H]1Cc1c[nH]c2ccccc12 [RO7075573]
8 µg/mL: MIC 100% (ROB08701, Study ROC012)
0.12 µg/mL: MIC 80% (ATCC 17978, Study LGC301026) | MIC 100% (ATCC 17978, Study LGC301026) | MIC 80% (ATCC 19606, Study LGC281440) | MIC 100% (ATCC 19606, Study LGC281440) | MIC 80% (ATCC 19606, Study LGC285582) | MIC 80% (ATCC 19606, Study LGC286210) | MIC 100% (ATCC 19606, Study LGC286210) | MIC 80% (ATCC 19606, Study LGC293598) | MIC 80% (ATCC 19606, Study LGC294355) | MIC 100% (ATCC 19606, Study LGC294355) | MIC 80% (ATCC 19606, Study LGC296813) | MIC 80% (ATCC 19606, Study LGC299544) | MIC 100% (ATCC 19606, Study LGC299544) | MIC 80% (ATCC 19606, Study LGC301026) | MIC 80% (ATCC 19606, Study LGC308175) | MIC 100% (ATCC 19606, Study LGC308175) | MIC 80% (ATCC 19606, Study ROC012) | MIC (Acinetobacter baumannii, ATCC17978, ATCC 17978, CAMHB, MCPs read at 80% inhibition) | MIC (Acinetobacter baumannii, ATCC19606, ATCC 19606, CAMHB, MCPs read at 80% growth inhibition) | MIC (Acinetobacter baumannii, ATCC19606, ATCC 19606, CAMHB, MCPs read at 80% inhibition) | MIC (Acinetobacter baumannii, ROB08701, CAMHB, MCPs read at 80% inhibition) | MIC (Acinetobacter baumannii, ROB08702, CAMHB, MCPs read at 80% inhibition) | MIC (Acinetobacter baumannii, ROB08707, CAMHB, MCPs read at 80% inhibition) | MIC (Acinetobacter baumannii, ROB08708, CAMHB, MCPs read at 80% inhibition) | MIC (Acinetobacter baumannii, ROB08709, CAMHB, MCPs read at 80% inhibition) | MIC (Acinetobacter baumannii, ROB08710, CAMHB, MCPs read at 80% inhibition) | MIC 80% (ROB08701, Study LGC281440) | MIC 80% (ROB08701, Study LGC282160) | MIC 80% (ROB08701, Study LGC285582) | MIC 80% (ROB08701, Study LGC286210) | MIC 80% (ROB08701, Study LGC293598) | MIC 80% (ROB08701, Study LGC294355) | MIC 80% (ROB08701, Study LGC295147) | MIC 100% (ROB08701, Study LGC295147) | MIC 80% (ROB08701, Study LGC296813) | MIC 80% (ROB08701, Study LGC299544) | MIC 80% (ROB08701, Study LGC308175) | MIC 80% (ROB08701, Study ROC012) | MIC 80% (ROB08702, Study LGC281440) | MIC 80% (ROB08702, Study LGC284879) | MIC 80% (ROB08702, Study LGC285582) | MIC 80% (ROB08702, Study LGC286210)
0.25 µg/mL: MIC 80% (ATCC 19606, Study LGC282160) | MIC 100% (ATCC 19606, Study LGC282160) | MIC 80% (ATCC 19606, Study LGC284879) | MIC 100% (ATCC 19606, Study LGC284879) | MIC 100% (ATCC 19606, Study LGC285582) | MIC 100% (ATCC 19606, Study LGC293598) | MIC 80% (ATCC 19606, Study LGC295147) | MIC 100% (ATCC 19606, Study LGC295147) | MIC 100% (ATCC 19606, Study LGC296813) | MIC 100% (ATCC 19606, Study LGC301026) | MIC 80% (ATCC 19606, Study ROC010) | MIC 100% (ATCC 19606, Study ROC012) | MIC (Acinetobacter baumannii, ROB08703, CAMHB, MCPs read at 80% inhibition) | MIC 100% (ROB08701, Study LGC281440) | MIC 80% (ROB08701, Study LGC284879) | MIC 100% (ROB08701, Study LGC293598) | MIC 100% (ROB08701, Study LGC294355) | MIC 100% (ROB08701, Study LGC296813) | MIC 80% (ROB08701, Study ROC010)
0.5 µg/mL: MIC 100% (ATCC 19606, Study ROC010) | MIC90 (Acinetobacter baumannii, 10 MDR isolates, CAMHB, MCPs read at 80% growth inhibition) | MIC (Acinetobacter baumannii, ROB08704, CAMHB, MCPs read at 80% inhibition) | MIC (Acinetobacter baumannii, ROB08706, CAMHB, MCPs read at 80% inhibition) | MIC 100% (ROB08701, Study LGC284879) | MIC 80% (ROB08701, Study LGC301026) | MIC 100% (ROB08701, Study ROC010)
≤0.06 µg/mL: MIC 80% (ATCC 17978, Study LGC308175) | MIC 100% (ATCC 17978, Study LGC308175)
64 µg/mL: MIC 100% (ROB08701, Study LGC285582) | MIC 100% (ROB08701, Study LGC286210) | MIC 100% (ROB08701, Study LGC299544) | MIC 100% (ROB08701, Study LGC301026) | MIC 100% (ROB08701, Study LGC308175)
2 µg/mL: MIC (Acinetobacter baumannii, read-out: MIC read at 80% growth inhibition, CAMHB) | MIC 80% (ROB08702, Study LGC282160)
≤ 0.06 µg/mL: MIC (Acinetobacter baumannii, ATCC17978, ATCC 17978, CAMHB, one replicate, MCPs read at 80% growth inhibition) | MIC (Acinetobacter baumannii, ROB08705, CAMHB, MCPs read at 80% inhibition)
> 64 µg/mL: MIC (Acinetobacter baumannii, read-out: MIC read at 100% growth inhibition, CAMHB)
1 µg/mL: MIC 100% (ROB08701, Study LGC282160)
>64 µg/mL: MIC 100% (ROB08702, Study LGC281440) | MIC 100% (ROB08702, Study LGC282160) | MIC 100% (ROB08702, Study LGC284879) | MIC 100% (ROB08702, Study LGC285582)

— PMC10794144, “A novel antibiotic class targeting the lipopolysaccharide transporter” (Nature, 2024)
